From patent US9700044B2, “Symmetrical marinopyrrole derivatives as potential antibiotic agents” (priority 2013, dated 2017)
Converted amounts (≈) assume the structure as drawn. Like-named read-outs stand apart in the source and are kept apart here.

Assays:
[1] = tested on: E. coli; test: MIC by agar dilution, E. coli; type: cell-based
From the text: (§1) A panel of multiple resistance Gram-positive and Gram-negative pathogens listed in Tables 1 and 2 was used to evaluate the antimicrobial activity of marinopyrrole derivatives (Chart 1) with vancomycin as a positive control. Except for those marked with WHO, all pathogens were isolated between 2008 and 2010 in hospitals located in Beijing; Guangzhou; Sichuan, Shandong and Jiangsu Province. Determination of the minimum inhibitory concentration (MIC) was done by the guidelines of the Clinical and Laboratory Standards Institute (Clinical and Laboratory Standards Institute, Performance standards for antimicrobial susceptibility testing, seventeenth informational supplement. 2007, 27, M100-S17). The susceptibility tests of a bacterial strain to a marinopyrrole derivative were performed by an agar dilution method. Briefly, each sterile petri dish contained a final volume of 15 mL comprising 1 mL of a marinopyrrole derivative and 14 mL of Mueller-Hinton broth. The concentrations of a marinopyrrole derivative are 128, 64, 32, 16, 8, 4, 2, 1, 0.5, 0.25, 0.125, 0.06, 0.03, 0.015 and 0.008 μg/mL. The petri dish containing the broth with different concentration of antibiotics was first inoculated with 10^5 CFU/mL (Denley A400, United Kingdom) and the culture was then incubated with shaking at 35-37° C. for 18-20 h. The potency of the compound was determined and expressed as minimum inhibitory concentration (MIC) in μg/mL. The MIC was determined as the lowest concentration of antibiotic that inhibited visible bacterial growth.

[2] = tested on: Methicillin-resistant Staphylococcus aureus with the mec A gene and PBP2a (WHO-31); test: MIC by agar dilution, MRSA (WHO-31); type: cell-based
From the text: as §1

[3] = tested on: Oxacillin-resistant Staphylococcus aureus (WHO-25); test: MIC by agar dilution, ORSA (WHO-25); type: cell-based
From the text: as §1

[4] = tested on: K. penumonia; test: MIC by agar dilution, K. penumonia; type: cell-based, K. pneumonia
From the text: as §1

[5] = tested on: Moderately vancomycin-resistant Enterococci faecium with the VanA gene (WHO-3); test: MIC by agar dilution, VRE (WHO-3); type: cell-based
From the text: as §1

[6] = tested on: Methicillin-susceptible Staphylococcus aureus (MSSA); test: MIC by agar dilution, MSSA clinical isolates; type: cell-based; settings: MSSA
From the text: as §1

[7] = tested on: Highly vancomycin-resistant Enterococci faecalis (VRE); test: MIC by agar dilution, highly resistant VRE; type: cell-based
From the text: as §1

[8] = tested on: P. aeruginosa; test: MIC by agar dilution, P. aeruginosa; type: cell-based
From the text: as §1

[9] = tested on: Methicillin-resistant Staphylococcus epidermidis (MRSE); test: MIC by agar dilution, MRSE clinical isolates; type: cell-based; settings: MRSE
From the text: as §1

[10] = tested on: Methicillin-resistant Staphylococcus aureus (MRSA); test: MIC by agar dilution, MRSA clinical isolates; type: cell-based; settings: MRSA
From the text: as §1

[11] = Table 1, E. coli, 4 isolates, value over three Gram-negative pathogens
[12] = Table 1, MRSA (WHO-31), 1 isolate
[13] = Table 1, ORSA (WHO-25), 1 isolate
[14] = Table 1, K. penumonia, 4 isolates, value over three Gram-negative pathogens
[15] = Table 1, VRE (WHO-3), 1 isolate
[16] = Table 1, VRE (highly vancomycin-resistant E. faecalis), 2 isolates
[17] = Table 1, P. aeruginosa, 4 isolates, value over three Gram-negative pathogens
[18] = Staphylococcus aureus, Table 1, 10 isolates
[19] = Staphylococcus aureus, Table 2, data from 8 isolates
[20] = Staphylococcus aureus, Table 3, data from 8 isolates

## COc1cc(O)c(C(=O)c2[nH]c(Cl)c(Cl)c2-n2c(C(=O)c3cc(Cl)c(OC)cc3O)cc(Cl)c2Cl)cc1Cl [Compound 1m]
[1]; [11]
  MIC: >128 µg/mL
[2]; [12]
  MIC: 4 µg/mL (≈ 6.26 µM)
[3]; [13]
  MIC: 4 µg/mL (≈ 6.26 µM)
[4]; [14]
  MIC: >128 µg/mL
[5]; [15]
  MIC: 0.5 µg/mL (≈ 0.782 µM)
[6]; Table 1, 10 isolates
  MIC: 2 to 8 µg/mL
[7]; [16]
  MIC: >128 µg/mL
[8]; [17]
  MIC: >128 µg/mL
[9]; Table 1, 3 isolates
  MIC: 0.25 to 4 µg/mL
[10]; Table 1, 10 isolates
  MIC: 2 to 8 µg/mL

## O=C(c1ccccc1)c1[nH]c(Cl)c(Cl)c1-n1c(C(=O)c2ccccc2)cc(Cl)c1Cl [Compound 1d]
[1]; [11]
  MIC: >128 µg/mL
[2]; [12]
  MIC: 4 µg/mL (≈ 8.37 µM)
[3]; [13]
  MIC: 4 µg/mL (≈ 8.37 µM)
[4]; [14]
  MIC: >128 µg/mL
[5]; [15]
  MIC: 2 µg/mL (≈ 4.18 µM)
[6]; Table 1, 10 isolates
  MIC: 2 to 8 µg/mL
[7]; [16]
  MIC: >128 µg/mL
[8]; [17]
  MIC: >128 µg/mL
[9]; Table 1, 3 isolates
  MIC: 0.5 to 4 µg/mL
[10]; Table 1, 10 isolates
  MIC: 4 to 8 µg/mL

## COc1ccccc1C(=O)c1[nH]c(Cl)c(Cl)c1-n1c(C(=O)c2ccccc2OC)cc(Cl)c1Cl [Compound 1c]
[1]; [11]
  MIC: >128 µg/mL
[2]; [12]
  MIC: 4 µg/mL (≈ 7.43 µM)
[3]; [13]
  MIC: 8 µg/mL (≈ 14.9 µM)
[4]; [14]
  MIC: >128 µg/mL
[5]; [15]
  MIC: 2 µg/mL (≈ 3.72 µM)
[6]; Table 1, 10 isolates
  MIC: 4 to 16 µg/mL
[7]; [16]
  MIC: >128 µg/mL
[8]; [17]
  MIC: >128 µg/mL
[9]; Table 1, 3 isolates
  MIC: 2 to 4 µg/mL
[10]; Table 1, 10 isolates
  MIC: 4 to 16 µg/mL

## O=C(c1ccccc1O)c1[nH]c(Cl)c(Cl)c1-n1c(C(=O)c2ccccc2O)cc(Cl)c1Cl [Compound 1, marinopyrrole A, reference compound]
[1]; Escherichia coli
  MIC: > 128 µg/mL
[2]; Staphylococcus aureus
  MIC: 1 µg/mL (≈ 1.96 µM)
[2]; Staphylococcus aureus, MRSA
  MIC: 1 µg/mL (≈ 1.96 µM)
[2]; Table 3, WHO-31
  MIC: 1 µg/mL (≈ 1.96 µM)
[3]; Staphylococcus aureus, Table 1, ORSA (WHO-25), 1 isolate
  MIC: 1 µg/mL (≈ 1.96 µM)
[3]; Staphylococcus aureus, Table 3, WHO-25
  MIC: 1 µg/mL (≈ 1.96 µM)
[3]; Staphylococcus aureus, Table 2, WHO-25
  MIC: 1 µg/mL (≈ 1.96 µM)
[4]; Klebsiella pneumoniae
  MIC: > 128 µg/mL
[5]; Enterococcus
  MIC: 1 µg/mL (≈ 1.96 µM)
[5]; Enterococcus, VRE
  MIC: 0.5 to 1 µg/mL (≈ 0.98 to 1.96 µM)
[5]; Table 3, WHO-3
  MIC: 1 µg/mL (≈ 1.96 µM)
[6]; [18]
  MIC: 0.5 to 1 µg/mL (≈ 0.98 to 1.96 µM)
[6]; [19]
  MIC: 0.5 µg/mL (≈ 0.98 µM)
[6]; [20]
  MIC: 0.5 µg/mL (≈ 0.98 µM)
[7]
  MIC: 16 to 128 µg/mL (≈ 31.4 to 251 µM)
[8]; Pseudomonas aeruginosa
  MIC: > 128 µg/mL
[9]; Staphylococcus epidermidis, Table 1, 3 isolates
  MIC: 0.06 to 1 µg/mL (≈ 0.118 to 1.96 µM)
[9]; Staphylococcus epidermidis, Table 2, data from 4 isolates
  MIC: 0.25 µg/mL (≈ 0.49 µM)
[9]; Staphylococcus epidermidis, Table 3, data from 4 isolates
  MIC: 0.25 µg/mL (≈ 0.49 µM)
[10]; [18]
  MIC: 1 µg/mL (≈ 1.96 µM)
[10]; [19]
  MIC: 0.5 to 1 µg/mL (≈ 0.98 to 1.96 µM)
[10]; [20]
  MIC: 0.5 to 1 µg/mL (≈ 0.98 to 1.96 µM)
